Like-named read-outs stand apart in the source and are kept apart here.
Tests used:
wild-type HCT-116 cells = assay: Cell proliferation (MTS), wild-type HCT-116; type: cell-based; conditions: Homo sapiens, 240 h; wild-type HCT-116, 10 days with compound, MTS reading; read-out: IC50 HCT116 WT
In short: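 Wild-type HCT-116 cells were seeded at 100 cells/well in McCoy's 5A/10% FBS. From day 1 they were treated with compound in 3-fold dilutions (initial 20 µM, 8 points) for 10 days at 37° C. Proliferation was read by MTS on day 11, and IC50 was obtained from a four-parameter logistic fit.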

MTAP^-/- HCT-116 cells = assay: Cell proliferation (MTS), MTAP-/- HCT-116; type: cell-based, human; conditions: for Selectivity: HCT116 WT IC50 relative to HCT116 MTAP-/- IC50; for IC50: Homo sapiens, 240 h, MTAP-/- HCT-116, 10 days with compound, MTS reading, read-out: IC50 HCT116 MTAP-/-
In short: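 MTAP-/- (CRISPR/Cas9 biallelic knockout) or wild-type HCT-116 cells seeded at 100 cells/well, treated next day with 8-point 3-fold dilutions (top 20 µM) for 10 days at 37 °C, 5% CO2. Viability read by MTS; IC50 from four-parameter logistic fit of inhibition rate vs log concentration.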

PK experiment in rats = type: in vivo; conditions: rat; SD male rats, PO 10 mg/kg, vehicle 0.5% MC/0.2% Tween 80, plasma
Experimental: The samples were analyzed by LC-MS/MS. […] Table 6. Pharmacokinetic parameters for rats

PK experiment in mice = conditions: female, BALB/c, mouse, plasma, po, 10 mg/kg
[1] = Human liver microsome stability; type: in vitro ADME; conditions: pH 7.4; human liver microsomes 0.5 mg/mL, compound 1 µM, NADPH 1 mM, 37 °C
Experimental: (§1) Experimental materials: human liver microsomes (purchased from BIOIVT);
(§2) PBS: 0.1 M KH2PO4 and K2HPO4 buffers, pH 7.4.
MgCl2: a certain amount of MgCl2 was weighed out and prepared into a 16 mM MgCl2 solution with PBS.
NADPH (Chinese name: reduced nicotinamide adenine dinucleotide phosphate, purchased from Sigma, Cat. No.: 481973-500 mg): a certain amount of NADPH was weighed out and a 4 mM solution of NADPH was prepared with a 16 mM MgCl2 solution, and the final incubation concentration was 1 mM.
Compounds: 4 µM solutions of the test compounds and positive compounds were prepared with PBS, and the final incubation concentration was 1 µM.
Liver microsomes (purchased from BIOIVT, Cat. No.: X008070): the liver microsomes were diluted to […] with PBS, and the final incubation concentration was 0.5 mg/mL.
The prepared test compound or positive compound was added to a test tube, and then the prepared NADPH was added. The mixture was mixed well. The mixture was pre-incubated in a thermostat incubator at 220 rpm at 37 °C for 5 min, and the prepared liver microsomes were added to start the reaction. All steps were performed in replicate wells. At 0 min, 15 min, 30 min, 45 min, and 60 min, a certain volume of glacial acetonitrile solution containing an internal standard was added to the corresponding tube to precipitate the protein. The mixture was vortexed for 5 min with shaking, and then centrifuged at 4000 rpm for 10 min. […] The samples were analyzed by LC-MS/MS.
The concentrations (peak area ratios) of the example compounds were determined by LC-MS/MS. Rate constants were obtained by plotting "Ln (residual amount of compound %)" versus "incubation time" in Excel, thereby calculating the half-lives and intrinsic clearances of the drugs and providing a basis for the prediction of the in-vivo clearance.
[formula] CLH = CLint × fu × Qh /(CLint×fu+Qh) [formula]
Stability in human liver microsomes

CYP450 enzyme 3A4 = biological target: T1, CYP450 enzyme 3A4 (Homo sapiens, UniProt P08684); assay: CYP inhibition test in human liver microsomes; type: in vitro ADME; conditions: human liver microsomes 0.1 mg/mL
T1 construct: Liver microsomes (purchased from BIOIVT, Cat. No.: X008070); tissue BIOIVT X008070; host or cells: human liver microsomes
T1 sequence (P08684 whole entry): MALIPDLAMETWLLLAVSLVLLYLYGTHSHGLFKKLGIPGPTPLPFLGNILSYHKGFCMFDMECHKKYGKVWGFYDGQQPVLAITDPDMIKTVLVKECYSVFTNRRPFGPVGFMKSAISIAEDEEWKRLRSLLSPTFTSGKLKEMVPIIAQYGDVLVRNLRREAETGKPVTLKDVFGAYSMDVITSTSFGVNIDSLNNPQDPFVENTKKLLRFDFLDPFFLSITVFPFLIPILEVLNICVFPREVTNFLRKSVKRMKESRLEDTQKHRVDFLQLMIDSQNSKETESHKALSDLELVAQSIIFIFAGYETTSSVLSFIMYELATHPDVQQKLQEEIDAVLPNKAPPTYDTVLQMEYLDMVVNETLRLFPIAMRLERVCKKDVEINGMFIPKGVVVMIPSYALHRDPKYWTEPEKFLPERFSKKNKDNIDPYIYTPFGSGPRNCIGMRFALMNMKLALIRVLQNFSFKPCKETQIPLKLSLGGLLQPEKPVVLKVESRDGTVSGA
Experimental: as §1, §2
MgCl2: a certain amount of MgCl2 was weighed out and prepared into a 20 mM MgCl2 solution with PBS.
NADPH (Chinese name: reduced nicotinamide adenine dinucleotide phosphate, purchased from Sigma, Cat. No.: 481973-500 mg): a certain amount of NADPH was weighed out and a 5 mM solution of NADPH was prepared with a 20 mM MgCl2 solution, and the final incubation concentration was 1 mM.
Compounds: 3 mM, 1 mM, 0.3 mM, 0.1 mM, 0.03 mM, 0.01 mM, and 0 mM solutions of the test compounds were prepared with a DMSO-methanol (v:v = 1:9) solution, and the final incubation concentrations were 30 µM, 10 µM, 3 µM, 1 µM, 0.3 µM, 0.1 µM, and 0 µM. 30 µM, 10 µM, 3 µM, 1 µM, 0.3 µM, and 0 µM solutions of the positive compound (ketoconazole) were prepared with a DMSO-methanol (v:v = 1:9) solution, and the final incubation concentrations were 0.3 µM, 0.1 µM, 0.03 µM, 0.01 µM, 0.003 µM, and 0 µM.
Substrate working solutions: 200 µM and 15 µM solutions of substrate working solutions (testosterone and midazolam) were prepared with PBS, separately, and the final incubation concentrations were 40 µM and 3 µM.
Liver microsomes (purchased from BIOIVT, Cat. No.: X008070): the liver microsomes were diluted to […] with PBS, and the final incubation concentration was 0.1 mg/mL.
The prepared test compounds or positive compounds were added to a 96-well plate, and then the prepared human liver microsome working solution and substrate working solution were added. The mixture was mixed well. The mixture was pre-incubated in a thermostat incubator at 37 °C for 5 min, and then the prepared NADPH was added to start the reaction. The mixture was incubated for 5 min or 10 min. After the incubation was completed, a pre-cooled acetonitrile solution containing an internal standard was added to terminate the reaction. After protein precipitation, the mixture was vortexed for 5 min with shaking and then centrifuged at 4000 rpm for 10 min. The supernatant was collected and added to the 96-well plate. The content (peak concentration ratio) of the metabolites of the substrate was determined by an LC-MS/MS method. The residual activity and the half maximal inhibitory concentration (IC50) of the enzyme were calculated based on the detected content.
Percentage of remaining enzyme activity: The activity of each subtype of CYP450 enzyme was expressed as the amount of metabolite produced, and the percentage of remaining enzyme activity was calculated as follows: [formula]
The concentrations of the test substances and the corresponding residual activity percentages were fitted using a nonlinear model of Excel software, and the concentration of the test substances at which 50% inhibition of metabolite production was achieved was the IC50 value.

hERG = biological target: T2, hERG (Homo sapiens, UniProt Q12809); assay: hERG test (Predictor hERG Fluorescence Polarization Assay Kit); type: binding; conditions: for inhibition at 3.5 h, 10 µM: human, probe Predictor hERG Tracer Red, 10 µM test substance, three duplicate wells; for IC50: only 10 µM tested
T2 construct: purchased ThermoFisher Scientific PV5365
T2 sequence (Q12809 whole entry): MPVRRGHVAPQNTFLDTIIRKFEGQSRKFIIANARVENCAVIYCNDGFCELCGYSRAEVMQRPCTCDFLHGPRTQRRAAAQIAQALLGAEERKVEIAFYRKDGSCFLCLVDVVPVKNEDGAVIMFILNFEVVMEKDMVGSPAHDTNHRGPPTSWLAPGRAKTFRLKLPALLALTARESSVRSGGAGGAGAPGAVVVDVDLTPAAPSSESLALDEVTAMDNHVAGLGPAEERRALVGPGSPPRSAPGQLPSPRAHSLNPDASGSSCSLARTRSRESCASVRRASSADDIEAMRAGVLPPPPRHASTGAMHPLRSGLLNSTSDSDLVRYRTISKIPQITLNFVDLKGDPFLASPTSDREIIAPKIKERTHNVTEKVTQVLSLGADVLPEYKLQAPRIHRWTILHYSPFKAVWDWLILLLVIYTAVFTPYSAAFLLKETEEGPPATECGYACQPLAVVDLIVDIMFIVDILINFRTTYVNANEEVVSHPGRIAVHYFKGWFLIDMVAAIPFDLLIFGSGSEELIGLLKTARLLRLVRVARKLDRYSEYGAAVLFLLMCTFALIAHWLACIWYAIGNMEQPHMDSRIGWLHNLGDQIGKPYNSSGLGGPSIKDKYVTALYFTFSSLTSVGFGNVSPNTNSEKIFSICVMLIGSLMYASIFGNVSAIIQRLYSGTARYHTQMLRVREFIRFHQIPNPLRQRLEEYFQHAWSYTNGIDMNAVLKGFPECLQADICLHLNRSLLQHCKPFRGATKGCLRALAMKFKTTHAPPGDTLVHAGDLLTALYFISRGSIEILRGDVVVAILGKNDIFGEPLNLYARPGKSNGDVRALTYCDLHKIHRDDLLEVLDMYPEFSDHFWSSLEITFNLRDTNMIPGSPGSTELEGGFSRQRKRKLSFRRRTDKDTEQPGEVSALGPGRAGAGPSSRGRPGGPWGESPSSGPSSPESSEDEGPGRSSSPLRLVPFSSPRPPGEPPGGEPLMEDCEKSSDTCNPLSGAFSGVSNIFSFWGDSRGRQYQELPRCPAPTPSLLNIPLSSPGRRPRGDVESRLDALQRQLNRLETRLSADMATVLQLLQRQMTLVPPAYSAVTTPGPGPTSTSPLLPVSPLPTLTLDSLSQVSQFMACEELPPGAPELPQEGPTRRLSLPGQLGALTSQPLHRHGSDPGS
Experimental: Predictor™ hERG Fluorescence Polarization Assay Kit (ThermoFisher Scientific, PV5365).
The procedures in the kit instructions were followed: 4× Predictor™ hERG Tracer Red, 4× E-4031, and 4× test substance solutions (final assay concentration: 10 µM) were prepared in advance. 5 µL Predictor™ hERG FP Assay Buffer and 5 µL Predictor™ hERG Membrane were added sequentially to the Assay Blank group in a 384-well plate. 2.5 µL Predictor™ hERG FP Assay Buffer, 2.5 µL of 4× E-4031, and 2.5 µL of 4× test substance were added to the negative control group, the positive control group, and the test substance group, respectively, and then 5 µL Predictor™ hERG Membrane and 2.5 µL of 4× Predictor™ hERG Tracer Red were sequentially added. The total volume of the experimental system was 10 µL, and three duplicate wells were set for each group. After loading, the plate was gently tapped to mix well and incubated at room temperature (25 °C) in the dark for 3.5 h. After the incubation was completed, the fluorescence polarization value mP was measured on a microplate reader, and G Factor was 2.14.
The inhibition rate of the test substance was calculated using the following formula: [formula]

IC50 (wild-type HCT-116 cells) | IC50 (MTAP^-/- HCT-116 cells) | AUC(0-t) (PK experiment in rats) | Cmax (PK experiment in rats) | AUC(0-t) (PK experiment in mice) | Cmax (PK experiment in mice) | half-life at 1 µM [1] | IC50 (CYP450 enzyme 3A4; substrate midazolam 3 µM, read-out: IC50 3A4-Midazolam) | IC50 (CYP450 enzyme 3A4; substrate testosterone 40 µM, read-out: IC50 3A4-Testosterone) | Compound | Selectivity (MTAP^-/- HCT-116 cells) | inhibition at 3.5 h, 10 µM (hERG) | IC50 (hERG)
1160 nM | 13.9 nM | 13700 ± 2780 ng·h/mL | 1280 ± 270 ng/mL | 23300 ± 5520 ng·h/mL | 1600 ± 352 ng/mL | – | – | – | CN(C(=O)c1cc2c3c(c(N)nc2cc1F)COC3)[C@@H]1COc2cc(C#Cc3cnn(C4CC4)c3)ccc21 [Compound 16A, (S)-4-amino-N-(6-((1-cyclopropyl-1H-pyrazol-4-yl)ethynyl)-2,3-dihydrobenzofuran-3-yl)-7-fluoro-N-methyl-1,3-dihydrofuro[3,4-c]quinoline-8-carboxamide] | 84 | – | –
1390 nM | 7.1 nM | – | – | – | – | 47.2 min | – | – | CN(C(=O)c1cc2c3c(c(N)nc2cc1Cl)COC3)[C@@H]1COc2cc(C#Cc3cnn4c3CCCC4)ccc21 [Compound 91A, (S)-4-amino-7-chloro-N-methyl-N-(6-((4,5,6,7-tetrahydropyrazolo[1,5-a]pyridin-3-yl)ethynyl)-2,3-dihydrobenzofuran-3-yl)-1,3-dihydrofuro[3,4-c]quinoline-8-car boxamide] | 195 | – | –
– | – | – | – | – | – | 16.6 min | – | – | C#Cc1ccc2c(c1)OCC2N(C)C(=O)c1cc2c(cc1F)nc(N)c1cnn(C)c12 (stereo not drawn) [Reference Example 1, reference compound] | – | – | –
483 nM | 4.6 nM | – | – | 10100 ± 3500 ng·h/mL | 793 ± 28 ng/mL | 62.9 min | > 30000 nM | > 30000 nM | CN(C(=O)c1cc2c3c(c(N)nc2cc1Cl)COC3)[C@@H]1COc2cc(C#Cc3cnn(C)c3)ccc21 [Compound 40A, (S)-4-amino-7-chloro-N-methyl-N-(6-((1-methyl-1H-pyrazol-4-yl)ethynyl)-2,3-dihydrobenzofuran-3-yl)-1,3-dihydrofuro[3,4-c]quinoline-8-carboxamide] | 105 | – | –
– | – | 2940 ± 438 ng·h/mL | 549 ± 139 ng/mL | 9080 ± 2790 ng·h/mL | 1400 ± 165 ng/mL | 25.6 min | – | – | C#Cc1ccc2c(c1)OC[C@H]2N(C)C(=O)c1cc2c3c(c(N)nc2cc1Cl)COC3 [Reference Example 5, reference compound] | – | – | –
2960 nM | 20 nM | – | – | 20900 ± 8400 ng·h/mL | 2670 ± 180 ng/mL | – | – | – | CN(C(=O)c1cc2c3c(c(N)nc2cc1F)COC3)C1COc2cc(C#Cc3cnn(C)c3)ccc21 (stereo not drawn) [Compound 39, 4-amino-7-fluoro-N-methyl-N-(6-((1-methyl-1H-pyrazol-4-yl)ethynyl)-2,3-dihydrobenzofuran-3-yl)-1,3-dihydrofuro[3,4-c]quinoline-8-carboxamide] | 148 | 23.8% | > 10000 nM
– | – | 784 ± 595 ng·h/mL | 131 ± 17 ng/mL | – | – | 33.6 min | – | – | C#Cc1ccc2c(c1)OCC2N(C)C(=O)c1ccc2nc(N)c3cnn(C)c3c2c1 (stereo not drawn) [Reference Example 2] | – | – | –
1320 nM | 8 nM | – | – | 9150 ± 2240 ng·h/mL | 634 ± 71 ng/mL | 169 min | – | – | CN(C(=O)c1ccc2nc(N)c3cnn(C)c3c2c1)C1COc2cc(C#Cc3cnn(C4CC4)c3)ccc21 (stereo not drawn) [Compound 4, 4-amino-N-(6-((1-cyclopropyl-1H-pyrazol-4-yl)ethynyl)-2,3-dihydrobenzofuran-3-yl)-N,1-dimethyl-1H-pyrazolo[4,3-c]quinoline-8-carboxamide] | 165 | – | –
487 nM | 3.2 nM | – | – | 14200 ± 2430 ng·h/mL | 1500 ± 313 ng/mL | – | – | – | Cc1c(C#Cc2ccc3c(c2)OC[C@H]3N(C)C(=O)c2cc3c4c(c(N)nc3cc2Cl)COC4)cnn1C [Compound 52A, (S)-4-amino-7-chloro-N-(6-((1,5-dimethyl-1H-pyrazol-4-yl)ethynyl)-2,3-dihydrobenzofuran-3-yl)-N-methyl-1,3-dihydrofuro[3,4-c]quinoline-8-carboxamide] | 152 | 10.4 ± 49.1% | > 10000 nM
2010 nM | 97.4 nM | 853 ± 79 ng·h/mL | 477 ± 110 ng/mL | 12600 ± 1920 ng·h/mL | 1920 ± 76 ng/mL | 28.9 min | – | – | Nc1nc2cnc(C(=O)N3CCOC[C@@H]3c3ccc(C(F)(F)F)cc3)cc2c2c1COC2 [Reference Example 7, reference compound] | 21 | – | –
1000 nM | 8 nM | – | – | 10500 ± 2400 ng·h/mL | 1810 ± 195 ng/mL | – | – | – | Cc1ncccc1C#Cc1ccc2c(c1)OC[C@H]2N(C)C(=O)c1cc2c3c(c(N)nc2cc1Cl)COC3 [Compound 57A, (S)-4-amino-7-chloro-N-methyl-N-(6-((2-methylpyridin-3-yl)ethynyl)-2,3-dihydrobenzofuran-3-yl)-1,3-dihydrofuro[3,4-c]quinoline-8-carboxamide] | 125 | 14.2 ± 18% | > 10000 nM
